Test results published in patent US10213450B2, “Combination of biologically active substances for treatment of hyperglycaemic disorders” (BioActive Food GmbH, priority 2014, dated 2019).

Columns and labels:
human SGLT1 = target: T1, human SGLT1 (Homo sapiens, UniProt P13866); assay: Ex vivo model: incubation with LPH-expressing human small intestine brush border membranes, then SGLT1 activity of supernatants by two-electrode voltage-clamp in Xenopus oocytes; assay type: cell-based; details: LPH inhibitor 10 μg/ml alone
T1 construct: expressed in transfected cells; host or cells: Xenopus oocytes
T1 sequence (P13866 1-664): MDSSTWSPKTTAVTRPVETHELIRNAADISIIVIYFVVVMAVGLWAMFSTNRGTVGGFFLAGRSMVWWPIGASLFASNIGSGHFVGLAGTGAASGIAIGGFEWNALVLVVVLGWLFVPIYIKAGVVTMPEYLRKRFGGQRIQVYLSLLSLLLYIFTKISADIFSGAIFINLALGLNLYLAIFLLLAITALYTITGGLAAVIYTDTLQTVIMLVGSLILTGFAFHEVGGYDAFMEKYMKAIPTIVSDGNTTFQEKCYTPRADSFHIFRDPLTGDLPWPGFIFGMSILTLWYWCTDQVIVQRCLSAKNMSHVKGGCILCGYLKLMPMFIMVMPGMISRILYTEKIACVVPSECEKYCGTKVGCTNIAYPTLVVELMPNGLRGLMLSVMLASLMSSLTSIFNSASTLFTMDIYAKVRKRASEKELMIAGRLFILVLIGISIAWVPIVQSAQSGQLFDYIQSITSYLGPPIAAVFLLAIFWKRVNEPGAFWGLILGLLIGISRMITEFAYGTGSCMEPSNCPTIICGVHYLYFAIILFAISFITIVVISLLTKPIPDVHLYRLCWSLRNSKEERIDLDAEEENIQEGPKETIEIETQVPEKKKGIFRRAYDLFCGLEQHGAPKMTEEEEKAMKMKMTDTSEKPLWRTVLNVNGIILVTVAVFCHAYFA
Description: The effect of a combination of phlorizin and a LPH inhibitor on the uptake of glucose by the SGLT 1 transporter was tested with an ex vivo model that simulates the situation in the human intestine. The ex vivo test model uses tissue from the human small intestine which expresses the lactase phlorizin hydrolase (LPH) and is thus able to cleave phlorizin and other glycosides. Subsequently, the reaction batches that had been pre-processed in this way were tested in an in vitro assay for their inhibitory effect on the SGLT1 transporter.
In summary, so-called “brush border membranes” were prepared from the small intestine and incubated in an appropriate buffer with phlorizin and/or the respective LPH inhibitor for 90 minutes.
Here, Xenopus oocytes were used which express the human SGLT1. The transport of glucose by SGLT1 can be measured because the combined transport of glucose and sodium by SGLT1 causes a current through the oocyte membrane. This current is determined electrophysiologically by a “two-electrode voltage-clamp” method. In this model, a reduction in the activity of the SGLT1 also results in a reduction of current across the cell membrane.

[1] = target: T2, lactase phlorizin hydrolase (LPH) (Homo sapiens, UniProt P09848); assay: In vitro inhibition of LPH, phlorizin dihydrate as substrate, released glucose measured; assay type: biochemical
T2 construct: tissue of the human small intestine (0.6 mg/ml) expressing the LPH was used; from tissue; host or cells: human small intestine tissue
T2 sequence (P09848 869-1927): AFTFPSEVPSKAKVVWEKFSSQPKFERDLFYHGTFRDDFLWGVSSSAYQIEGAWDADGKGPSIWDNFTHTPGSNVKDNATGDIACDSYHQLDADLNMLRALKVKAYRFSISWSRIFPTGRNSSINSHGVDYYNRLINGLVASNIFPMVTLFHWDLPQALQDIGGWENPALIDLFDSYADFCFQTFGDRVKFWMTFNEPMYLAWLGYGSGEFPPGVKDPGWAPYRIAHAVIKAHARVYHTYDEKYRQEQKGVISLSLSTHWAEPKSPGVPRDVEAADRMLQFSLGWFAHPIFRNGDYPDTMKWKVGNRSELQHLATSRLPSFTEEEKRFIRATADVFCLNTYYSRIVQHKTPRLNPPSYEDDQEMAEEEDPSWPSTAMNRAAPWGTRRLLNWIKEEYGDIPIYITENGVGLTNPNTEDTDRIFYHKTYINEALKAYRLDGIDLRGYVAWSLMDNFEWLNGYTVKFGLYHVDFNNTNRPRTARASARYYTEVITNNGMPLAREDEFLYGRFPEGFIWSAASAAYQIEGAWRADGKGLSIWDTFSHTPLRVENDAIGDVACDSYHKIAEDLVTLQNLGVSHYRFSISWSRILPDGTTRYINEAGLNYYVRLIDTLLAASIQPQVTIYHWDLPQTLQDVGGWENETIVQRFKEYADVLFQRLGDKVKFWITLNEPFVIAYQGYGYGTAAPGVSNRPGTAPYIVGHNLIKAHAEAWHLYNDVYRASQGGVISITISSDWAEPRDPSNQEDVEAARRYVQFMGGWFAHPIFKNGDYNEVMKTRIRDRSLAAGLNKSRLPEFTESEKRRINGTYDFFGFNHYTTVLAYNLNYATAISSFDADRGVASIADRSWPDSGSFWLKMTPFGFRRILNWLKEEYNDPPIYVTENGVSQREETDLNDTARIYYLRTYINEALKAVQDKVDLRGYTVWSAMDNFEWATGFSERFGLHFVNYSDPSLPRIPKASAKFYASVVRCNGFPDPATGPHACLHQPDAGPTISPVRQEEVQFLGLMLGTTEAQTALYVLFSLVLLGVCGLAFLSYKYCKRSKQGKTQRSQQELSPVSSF
Description: Various quercetin and kaempferol derivates were tested in vitro as inhibitors of lactase phlorizin hydrolase (LPH). The testing was carried out according to Amiri et al. (2012, J Inherit Metab Dis, 35(6): 949-54). Here, tissue of the human small intestine (0.6 mg/ml) expressing the LPH was used. Phlorizin dihydrate served as the substrate. The released glucose was measured using a standard assay (Chu & Cheung, 1978, Clin Biochem, 11(4): 187-9).

Compound	Glucose uptake, inhibition (human SGLT1; Batch A) [%]	Glucose uptake, inhibition (human SGLT1; Batch B) [%]	inhibition of the LPH ([1]; concentration of 50 mg/ml (as printed in text))	inhibition at 100 µg/mL ([1]; 100 μg/ml inhibitor (stated in cell)) [%]
O=c1c(O)c(-c2ccc(O)c(O)c2)oc2cc(OC3O[C@H](CO)[C@@H](O)[C@H](O)[C@H]3O)cc(O)c12 (stereo partly shown) [No. 3, 3,3′,4′,5,7-pentahydroxy flavone-7-glucoside]	2	2.5	about 70%	–
O=c1c(OC2O[C@H](CO)[C@@H](O)[C@H](O)[C@H]2O)c(-c2ccc(O)c(O)c2)oc2cc(O)cc(O)c12 (stereo partly shown) [compound 2]	–	–	–	13.7
